Assay results published in ChEMBL document CHEMBL2396565, “An epigenetic modifier enhances the production of anti-diabetic and anti-inflammatory sesquiterpenoids from Aspergillus sydowii” (Bioorg Med Chem, 2013).
pIC50: −log10 of the molar value. The source made the active and inactive calls. No cut-off for these calls is given here.

Experiments:
[1] = Antiinflammatory activity in human neutrophils assessed as inhibition of fMLP/CB-induced elastase release at 10 ug/mL after 5 mins by spectrophotometric analysis relative to control; assay type: functional; details: Neutrophil
[2] = Antiinflammatory activity in human neutrophils assessed as inhibition of fMLP/CB-induced elastase release after 5 mins by spectrophotometric analysis; assay type: functional, cell-based; details: Neutrophil
[3] = Antiinflammatory activity in human neutrophils assessed as inhibition of fMLP/CB-induced superoxide generation at 10 ug/mL after 5 mins by spectrophotometric analysis relative to control; assay type: functional; details: Neutrophil
[4] = Antiinflammatory activity in human neutrophils assessed as inhibition of fMLP/CB-induced superoxide generation after 5 mins by spectrophotometric analysis; assay type: functional, cell-based; details: Neutrophil
3T3-L1 [5] = test: Potentiation of insulin-stimulated glucose consumption in mouse 3T3L1 cells at 30 ug/mL after 24 hrs; assay type: functional, cell-based
3T3-L1 [6] = test: Inhibition of lipid accumulation in mouse 3T3L1 cells at 30 ug/mL after 8 days by Oil red O staining-based microscopic analysis relative to control; assay type: functional; details: 3T3-L1, 192 h
3T3-L1 [7] = test: Potentiation of insulin-stimulated glucose consumption in mouse 3T3L1 cells assessed as glucose concentration in culture medium at 30 ug/mL after 24 hrs (reference value: 427.4 mg/dL); assay type: functional

| Structure (SMILES) | inhibition at 10 µg/mL [1] [%] | IC50 [2] [µg/mL] | inhibition at 10 µg/mL [3] [%] | pIC50 [4] | Activity (3T3-L1 [5]) | pIC50 [2] | inhibition at 30 µg/mL (3T3-L1 [6]) [%] | Activity (3T3-L1 [7]) [mg/dL] | IC50 [4] [µg/mL] |
| --- | --- | --- | --- | --- | --- | --- | --- | --- | --- |
| CO[C@@](C)(CCCC(C)C)c1ccc(CO)cc1O [(7S)-(+)-7-O-METHYLSYDONOL] | 29.8 | > 10 | 69 | 4.86 | Active | – | – | – | – |
| COC(=O)[C@@H]1c2c(oc3cc(CO)cc(O)c3c2=O)C=C[C@H]1O | 98.9 | – | 102 | 5.22 | – | 5.18 | – | – | – |
| Cc1cc(O)cc(Oc2cc(C)cc(O)c2)c1 [DIORCINOL] | 39.8 | > 10 | 92 | 4.91 | – | – | – | – | – |
| C/C(=C\CCC(C)C)c1ccc(CO)cc1O | 84.3 | – | 97.8 | 5.21 | – | 5.06 | – | – | – |
| CC(C)CCC[C@](C)(O)c1ccc(CO)cc1O [(S)-(+)-SYDONOL] | 65.3 | – | 87 | 5.28 | Active | 4.79 | ≤ 48 | 324.6 | – |
| CNC(=O)c1cc(Oc2ccc(NC(=O)Nc3ccc(Cl)c(C(F)(F)F)c3)cc2)ccn1 [SORAFENIB] | 83 | – | 70.9 | 5.90 | – | 5.25 | – | – | – |
| COC(=O)c1cccc2oc3cc(CO)cc(O)c3c(=O)c12 [SYDOWININ A] | 28.7 | > 10 | 38.1 | – | – | – | – | – | > 10 |
| COC(=O)c1c(O)ccc2oc3cc(CO)cc(O)c3c(=O)c12 [SYDOWININ B] | 85 | – | 66.2 | 4.67 | – | 4.90 | – | – | – |
| CC(C)CCC[C@](C)(O)c1ccc(C(=O)O)cc1O | 2.56 | > 10 | 60.2 | 4.56 | – | – | – | 381.4 | – |
| C/C(=C\CCC(C)CO)c1ccc(CO)cc1O (stereo unspecified) | 6.68 | > 10 | 71.7 | 4.67 | Active | – | – | – | – |
